Data from patent US9162975B2, “Phenyl carbamate compounds for use in alleviating or treating pain” (Bio-Pharm Solutions Co., Ltd., priority 2011, dated 2015).

Key:
mice = test: Measurement of neurotoxicity (rotarod); format: in vivo; settings: protective index, ratio of TD50 to ED50 in MES
Method: The measurement of neurotoxicity of the test compounds was conducted by the method of Dunham and Miya [Dunham, N. W. and Miya, T. S. 1957. A note on a simple apparatus for detecting neurological deficit in rats and mice. J. Am. Pharm. Assoc. (Baltimore) 46: 208-209]. In the method, motor abilities of the test animals can be determined by observing whether the test animals can walk without falling from a rotator, thereby determining the value of neurotoxicity of each compound. […] They were pre-trained on the rotarod (Rotarod; Columbus instrument, rota-max, USA) at 6 rpm for 5 min 24 hr prior to the test. The peak time was determined by administration test material's random dose for 0.5, 1, 2, 4 hour. […] The ratio of TD50 to ED50 (TD50/ED50) is called as a protective index, and useful as a parameter for comparison of pharmaceutical efficacy and neurotoxicity.

ICR mice [1] = test: Hot-plate test; format: in vivo; settings: withdrawal latency relative to vehicle control, 150 mg/kg po, hot plate 55±1° C.
Method: To examine the pain relief effect of the phenyl carbamate compounds, a hot-plate test was conducted in general pain animal model referring to Current Protocols in Neuroscience; Behavioral Neuroscience Unit 8.9.
(§1) ICR mice (male, 30-35 g; Orient Bio, Korea) were habituated before test in test room for 1 hour Animals were fasted 2 hr before administration of compounds. Each of Compound 1, 2, 3, 4, 5, 63, 65, and 67 was orally administered at the dose of 150 mg/kg, 10 ul/g, bw (n=7˜10/group). All compounds were dissolved in a vehicle of 30% (v/v) PEG 400 or 20% (v/v) Tween 80. The control group was treated the vehicle without compounds.
0.5 hr after the administration of compounds, the mice were put on a hot plate pre-heated to 55±1° C. (Hu, X. et al, 2008), and then, measured as the withdrawal latency (cut-off time: 30 sec) time until the point when each mouse was taking off a paw from the plate, shaking, licking a paw or hind leg, or jumping from the plate.

ICR mice [2] = test: Writhing test (acetic acid); format: in vivo; settings: number of writhes relative to vehicle control, 20 mg/kg po, 0.6% acetic acid
Method: To examine the pain relief effect of the phenyl carbamate compounds, a writhing test was conducted in general pain animal model referring to Fischer, L. G. et al. (2008).
as §1, with “24-28” for “30-35”, “hr,” for “hr”, “20” for “150”, “(n=3˜5/group).” for “(n=7˜10/group).”
One hour after the administration of Compounds, 0.6% acetic acid at the dose of 10 ul/g, bw was injected into the mice. Animals were habituated in the cage for 5 min 5 min after habituation, the number of writhes (abdominal constriction) for 15 min was counted referring to Korzeniewska-Rybicka, I. et al. (1998) and compared with that of a control.

SNL model in rats = test: Antiallodynic activity on Chung model (SNL, spinal nerve ligation), von Frey; format: in vivo, Sprague-Dawley rats; settings: paw withdrawal threshold relative to sham, 50 mg/kg p.o.
Method: Male Sprague-Dawley rats (200-220 g, Orient Bio, Korea) were habituated for 1 week before the experiment and allowed free access to food and water throughout the experimentation. Room temperature and humidity were maintained at 24±2° C. and 50±10%, respectively. Neuropathic surgery (SNL, Spinal nerve ligation) model was done as described in Kim and Chung (1992). Briefly, animal under gaseous anesthesia with isoflurane a 4:4 flow ratio of NO2. The left lumber spinal nerve L5 and L6 were isolated and tightly ligated with 4˜0 silk thread. The wound was treated with a gentamicin antibiotics solution (4 mg/kg, 4 ul/g, bw), and the wound muscle was closed with cat cut chrome 4/0 thread and skin was closed dafilon 4/0 tread. Sham controls were prepared in the same manner as the spinal nerves were exposed, but no ligated L5 and L6 nerves. But, vehicle controls were identical to SNL model, except for administration of vehicles.
Tactile sensitivity (Mechanical allodynia) was evaluated using von Frey monofilaments before and after treatment and animals were used withdrawal threshold value was less than 4 g. […] The tactile sensitivity for ipsilateral hind paw was measured using the up-and-down method (Dixon, 1980) with seven von Frey monofilaments (0.4, 1, 2, 4, 6, 8, and 15 g) to 3 trials. […] The 50% paw withdrawal threshold for each paw was calculated using the following formula: [Xth] log=[vFr] log+ky where [vFr] is the force of the last von Frey used, k=0.2249 which is the average interval (in log units) between the von Frey monofilaments, and y is a value that depends upon the pattern of withdrawal responses (Dixon, 1980).
All animals were fasted 18 h before the administration of the compounds. Antiallodynic effect of compounds of Examples 1, 63 and 65 were evaluated at the dose of 5, 10 and 30 mg/kg (n=5˜6), orally administrated in a volume of 5 ul/g, bw in a vehicle of 30% (v/v) PEG 400 (Examples 1 and 63) or 20% (v/v) Tween 80 (Example 65). […]

SMILES | PI(TD50/ED50 in MES) (mice) | Hot-plate test (150 mg/kg, 0.5 h, po) % Control (ICR mice [1]) | Writhing test (20 mg/kg, 1 h, po) % Control (ICR mice [2]) | SNL (50 mg/kg, 1 h, p.o.) % Control (SNL model in rats)
CC(OC(N)=O)C(O)c1ccccc1Cl (racemic) [Example 3, 1-(2-chlorophenyl)-1-hydroxypropyl-2-carbamate] | 12.0 | 120.5% | 84.8% | –
C[C@@H](OC(N)=O)[C@H](O)c1ccccc1Cl [Example 2, 1-(2-chlorophenyl)-(R)-1-hydroxypropyl-(R)-2-carbamate] | 7.3 | 129.8% | 73.8% | –
C[C@@H](OC(N)=O)[C@@H](O)c1ccccc1Cl [Example 4, 1-(2-chlorophenyl)-(S)-1-hydroxypropyl-(R)-2-carbamate] | – | 108.2% | 75.5% | –
C[C@H](OC(N)=O)[C@H](O)c1ccccc1Cl [Example 5, 1-(2-chlorophenyl)-(R)-1-hydroxypropyl-(S)-2-carbamate] | 3.3 | 145.5% | 66.6% | –
C[C@H](OC(N)=O)[C@@H](O)c1c(Cl)cccc1Cl [Example 37, 1-(2,6-dichlorophenyl)-(S)-1-hydroxypropyl-(S)-2-carbamate] | 5.1 | – | – | –
C[C@H](OC(N)=O)[C@@H](O)c1ccccc1F [Example 63, 1-(2-fluorophenyl)-(S)-1-hydroxypropyl-(S)-2-carbamate] | – | 183.1% | 63.9% | 55.4%
C[C@H](OC(N)=O)[C@@H](O)c1ccccc1I [Example 65, 1-(2-iodophenyl)-(S)-1-hydroxypropyl-(S)-2-carbamate] | – | 104.1% | 60.6% | 76.8%
CC[C@H](OC(N)=O)[C@@H](O)c1ccccc1I [Example 67, 1-(2-iodophenyl)-(S)-1-hydroxybutyl-(S)-2-carbamate] | – | 131.4% | 68.3% | –
